Patent US20080234345A1, “METHOD FOR REDUCING OR ALLEVIATING INFLAMMATION IN THE DIGESTIVE TRACT” (Gene Logic Inc., priority 2006, published 2008)

What was measured:
[1] = tested on: NF-κB dependent transcription; assay: TNFα-induced activation of NF-κB in recombinant HeLa reporter cells (luciferase); format: cell-based
Excerpt: To test the ACE2 inhibitor GL1001 for anti-inflammatory activity relevant to IBD, effects of the compound on activation of NF-κB dependent transcription by TNFα were examined in recombinant reporter cells containing a construct with a luciferase reporter gene under control of NF-κB dependent regulatory sequences, thereby allowing detection of NF-κB dependent transcription by measuring reporter enzyme using a conventional luciferase activity assay based on detection of generated light.
In particular, HeLa cells (American Type Culture Collection) were grown in Dulbecco's modified Eagles medium (DMEM) supplemented with 10% fetal calf serum and transiently transfected with an NF-κB-luc construct (Stratagene, Inc.), as follows (with all incubation steps at 37 C unless otherwise indicated). Cells were seeded and grown to about 70% confluency in a 10 cm cell culture dish. Plasmid DNA (10 μg) was added to 1 ml serum free DMEM media in a tube. Fugene 6 transfection reagent (30 μl) (Roche) was then pipetted slowly into the tube and the contents were gently mixed by inversion. The mixture was incubated at room temperature for 15 minutes and then added dropwise to cells in one 10 cm dish. Following incubation for 24 hours, cells were detached from the plate with Trypsin-EDTA (Gibco-BRL), transferred to wells in a clear-bottom white 96-well test plate (Fisher) with 100 μl per well serum free DMEM, at a density of 3×10^4 cells per well, and allowed to attach overnight. Compound (GL1001) was then added to wells at a concentration of approximately 0, 0.008, 0.04, 0.2, 1.0 or 5.0 μM, followed immediately by addition of TNFα (R&D) to a final concentration of 20 ng/ml. After incubation for 6 hours, 100 μl of Bright-Glo Luciferase buffer (Promega, Cat# E2610) was added, and the plate was incubated at room temperature, with mild shaking, for 10 min. Bioluminescence was then measured using a Veritas luminometer (Turner BioSystems). Each plotted data point represents the average bioluminescence of 4 independent wells.

[2] = tested on: dextran sulfate sodium (DSS) induced colitis in mice; assay: DSS induced colitis in NF-κB::Luc mice (Example 5); format: in vivo; settings: 100 mg/kg s.c. per day
Excerpt: GL1001 was further tested for in vivo anti-inflammatory activity by examining its effects on dextran sulfate sodium (DSS) induced colitis in mice. […] See, e.g., Hollenbach et al. (2004) FASEB J. 18(13):1550-1552. See also Bryne et al. (2006), Current Opinion in Drug Discovery & Development 8(2):207-217 and sources cited therein. These pathologies include predominant left-sided colonic inflammation, prominent regeneration of the colonic mucosa cells with dysplasia leading to colon cancer, shortening of the large intestine, focal crypt damage, and frequent lymphoid hyperplasia in both biological systems. Further, according to Hollenbach et al (2004), supra, DSS-induced colitis in mice has a high value in assessing the efficacy of therapeutic agents commonly used in the treatment of colitis, since all therapeutically beneficial substances in human IBD were also shown to reduce the disease activity in this mouse model.
The study was designed with three groups: control (5 mice), 2.5% DSS alone (10 mice), and 2.5% DSS with GL1001 treatment (100 mg/kg subcutaneously per day) (10 mice). NF-κB::Luc mice were used to measure NF-κB activation as an indicator of inflammatory activity, as described above. In particular, organ specific luciferase activity was measured, in addition to body weight, fluid intake, occult fecal blood, organ weights and neutrophil infiltration (MPO assay). NF-κB::luc BL/6 albino background mice of 6-8 weeks of age were provided with 2.5% dextran sodium sulfate (DSS, MW 40,000; MP Biomedicals) in the drinking water. Mice were weighed, imaged and dosed with GL1001 daily. Fecal samples were collected from the bottom of the cages for each treatment group and tested for fecal consistency and occult blood using Hemocult Tape as directed by the manufacturer (Fisher Scientific) and fluid consumption was measured. At the conclusion of the study, the GI tract was removed, the various sections were cleaned and weighed, tissue samples were prepared for bioluminescent assays and myeloperoxidase (Myeloperoxidase assay kit, Cytostore) to look at neutrophil infiltration.
The mice were weighed and imaged at the time of daily GL1001 or vehicle control administration. Biophotonic images of the mice were acquired each day, as described above, with quantitative abdominal imaging results shown in FIG. 7. […] Water consumption was monitored for all of the animals and similar consumption rates indicate that DSS treated mice were all receiving similar amounts of DSS (FIG. 8).
Inflammatory bowel disease progression was monitored using an inflammatory bowel disease activity index which consists of the sum of percent weight loss, stool consistency and occult fecal blood divided by 3.

[3] = tested on: DSS-induced colitis in Balb/c mice; assay: DSS-induced colitis in Balb/c mice (Example 7); format: in vivo; settings: s.c. b.i.d., GL1001 300 mg/kg
Method: A study was designed with six groups of Balb/c mice: naïve control, DSS followed by vehicle, DSS followed by GL1001 30 mg/kg/day, DSS followed by GL1001 100 mg/kg/day, DSS followed by GL1001 300 mg/kg/day, and DSS followed by sulfasalazine 150 mg/kg/day. Administration of DSS was via drinking water, from day 1 to day 6 of the study. […] Administration of vehicle, GL1001 and sulfasalazine was subcutaneous, twice daily, from day 6 until termination of the study (day 16).
Body weight of each animal was measured at days 1, 3 and 5 (pre-initiation of GL1001 or sulfasalazine treatment) and at days 7, 9, 11 and 13 (post-initiation of GL1001 or sulfasalazine treatment). On these same days, disease activity measurements were recorded, including: • (a) rectal prolapse (0=no prolapse, 1=partial prolapse, 2=moderate prolapse, 3=full prolapse); • (b) stool consistency (0=solid pellet, 1=semi-solid, 2=soft stool, 3=diarrhea); and • (c) fecal occult blood (0=no blood present, 1=occult blood, 2=gross blood).
At termination of the study, colon length was determined and histological analysis was conducted as in Example 6.

CC(C)C[C@H](N[C@@H](Cc1cncn1Cc1cc(Cl)cc(Cl)c1)C(=O)O)C(=O)O [GL1001, (S,S)-2-[1-carboxy-2-[3-(3,5-dichlorobenzyl)-3H-imidazol-4-yl]-ethylamino]-4-methylpentanoic acid]
inhibition of TNFα induced activation of NF-κB dependent transcription ([1]; 8 nM GL1001, TNFα 20 ng/ml, 6 hours): over 80%
maximal inhibition of TNFα induced activation of NF-κB dependent transcription ([1]; 0.2 μM GL1001, TNFα 20 ng/ml, 6 hours): over 95%
TNFα induced activation of NF-κB dependent transcription ([1]; all tested concentrations (0.008-5.0 μM)): significantly inhibited
inflammatory bowel disease activity index ([2]; between days 3 and 8): slight delay
reduction in body weight ([2]; between days 4 and 9, vs DSS only): significantly delayed
NF-κB-driven luciferase expression, abdominal imaging, DSS only vs DSS+GL1001 ([2]; from study day 6): non-statistically significant divergence
DSS induced organ weight increases (organ weight/body weight ratio) ([2]; cecum and large intestine (colon)): completely prevented
fecal occult blood ([3]; day 7, sulfasalazine 150 mg/kg): reduces
stool consistency ([3]; day 7, sulfasalazine 150 mg/kg): reduces
percentage weight loss ([3]; day 9, sulfasalazine 150 mg/kg): reduces
rectal prolapse ([3]; day 9, sulfasalazine 150 mg/kg): reduces
distal colon erosion score [3]: reduces
distal colon crypt score ([3]; sulfasalazine 150 mg/kg): reduces
distal colon inflammation score ([3]; sulfasalazine 150 mg/kg): reduces
distal colon total histopathology score ([3]; sulfasalazine 150 mg/kg): reduces
reduction in colon length ([3]; sulfasalazine 150 mg/kg): inhibits reduction
